Assay results from the NIST ThermoML archive (doi:10.1016/j.tca.2010.02.008).

Experiment: excess molar enthalpy (molar enthalpy of mixing); xn = mol fraction of the nth substance listed
Conditions: 773.15 K, 101 kPa, Liquid, Calvet calorimetry

[In] [indium] + [Sn]
Conditions | excess molar enthalpy [kcal/mol]
x2 = 0.1 | -0.0437
x2 = 0.1966 | -0.0894
x2 = 0.2981 | -0.104
x2 = 0.4041 | -0.0915
x2 = 0.5002 | -0.0791
x2 = 0.5005 | -0.0755
x2 = 0.5949 | -0.0719
x2 = 0.6901 | -0.0576
x2 = 0.7891 | -0.0394
x2 = 0.8975 | -0.0208
